Test results published in PubChem BioAssay AID270 (DTP/NCI, 2004).
“And” between values parts separate entries of the source, which are not always exact repeats. Equal entries are not always repeated. Inconclusive results are not listed.

Tested on: BDF1 mice, s.c. Lewis lung carcinoma, T/C %
Test: NCI In Vivo Anticancer Drug Screen. Data for tumor model Lewis Lung Carcinoma (subcutaneous) in B6D2F1 (BDF1) mice
Procedure, shortened: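 The value reflects a ratio in which the treated cohort's survival time or tumour size is compared against mice receiving only vehicle.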

O=c1[nH]cnc2n[nH]nc12
T/C (endpoint: mean tumor weight, dose: 49.0 mg/kg/injection, schedule: Q01DX011 (ip), vehicle: other, higher = larger tumour): 76 % of control
T/C (endpoint: mean tumor weight, dose: 98.0 mg/kg/injection, schedule: Q01DX011 (ip), vehicle: other, higher = larger tumour): 64 % of control
T/C (endpoint: mean tumor weight, dose: 147.0 mg/kg/injection, schedule: Q01DX011 (ip), vehicle: other, higher = larger tumour): 55 % of control
T/C (endpoint: mean tumor weight, dose: 220.0 mg/kg/injection, schedule: Q01DX011 (ip), vehicle: other, higher = larger tumour): 67 % of control

O=C(O)Cc1ccc(C2CCCCC2)cc1
T/C (endpoint: mean tumor weight, dose: 150.0 mg/kg/injection, schedule: Q01DX011 (ip), vehicle: carboxymethylcellulose (CMC), higher = larger tumour): 67 % of control
T/C (endpoint: mean tumor weight, dose: 225.0 mg/kg/injection, schedule: Q01DX011 (ip), vehicle: carboxymethylcellulose (CMC), higher = larger tumour): 88 % of control
T/C (endpoint: mean tumor weight, dose: 335.0 mg/kg/injection, schedule: Q01DX011 (ip), vehicle: carboxymethylcellulose (CMC), higher = larger tumour): 100 % of control

C[C@@H]1C[C@@H]([C@H](O)CC2CC(=O)NC(=O)C2)C(=O)[C@@H](C)C1
T/C (endpoint: mean tumor weight, dose: 15.0 mg/kg/injection, schedule: Q01DX011 (ip), vehicle: carboxymethylcellulose (CMC), higher = larger tumour): 62 % of control and 81 % of control
T/C (endpoint: mean tumor weight, dose: 30.0 mg/kg/injection, schedule: Q01DX011 (ip), vehicle: carboxymethylcellulose (CMC), higher = larger tumour): 50 % of control and 57 % of control

CC1(C)N=C(N)N=C(N)N1c1ccc(F)c(C(F)(F)F)c1
T/C (endpoint: median survival time, dose: 12.5 mg/kg/injection, schedule: Q01DX009 (ip), vehicle: saline, higher = longer survival): 121 % of control
T/C (endpoint: median survival time, dose: 25.0 mg/kg/injection, schedule: Q01DX009 (ip), vehicle: saline, higher = longer survival): 111 % of control

CC[C@]1(O)C[C@H]2CN(CCc3c([nH]c4ccccc34)[C@@](C(=O)OC)(c3cc4c(cc3OC)N(C=O)[C@H]3[C@@](O)(C(=O)OC)[C@H](OC(C)=O)[C@]5(CC)C=CCN6CC[C@]43[C@@H]65)C2)C1
T/C (endpoint: mean survival time, dose: 0.5 mg/kg/injection, schedule: Q08DX002 (ip), vehicle: saline, higher = longer survival): 101 % of control
T/C (endpoint: mean survival time, dose: 1.0 mg/kg/injection, schedule: Q08DX002 (ip), vehicle: saline, higher = longer survival): 104 % of control
T/C (endpoint: mean survival time, dose: 1.5 mg/kg/injection, schedule: Q08DX002 (ip), vehicle: saline, higher = longer survival): 106 % of control
T/C (endpoint: mean tumor weight, dose: 0.05 mg/kg/injection, schedule: Q01DX011 (ip), vehicle: saline, higher = larger tumour): 81 % of control
T/C (endpoint: mean tumor weight, dose: 0.1 mg/kg/injection, schedule: Q01DX011 (ip), vehicle: saline, higher = larger tumour): 83 % of control
T/C (endpoint: mean tumor weight, dose: 0.15 mg/kg/injection, schedule: Q01DX011 (ip), vehicle: saline, higher = larger tumour): 87 % of control and 101 % of control
T/C (endpoint: mean tumor weight, dose: 0.22 mg/kg/injection, schedule: Q01DX011 (ip), vehicle: saline, higher = larger tumour): 88 % of control
T/C (endpoint: mean tumor weight, dose: 0.5 mg/kg/injection, schedule: Q01DX011 (ip), vehicle: saline, higher = larger tumour): 59 % of control
T/C (endpoint: mean tumor weight, dose: 62.5 micrograms/kg/injection, schedule: Q01DX011 (ip), vehicle: saline, higher = larger tumour): 59 % of control
T/C (endpoint: mean tumor weight, dose: 125.0 micrograms/kg/injection, schedule: Q01DX011 (ip), vehicle: saline, higher = larger tumour): 80 % of control
T/C (endpoint: mean tumor weight, dose: 250.0 micrograms/kg/injection, schedule: Q01DX011 (ip), vehicle: saline, higher = larger tumour): 59 % of control
T/C (endpoint: median survival time, dose: 0.12 mg/kg/injection, schedule: Q01DX009 (ip), vehicle: saline, higher = longer survival): 116 % of control
T/C (endpoint: median survival time, dose: 0.12 mg/kg/injection, schedule: Q04DX003 (ip), vehicle: saline, higher = longer survival): 104 % of control
T/C (endpoint: median survival time, dose: 0.13 mg/kg/injection, schedule: Q01DX009 (ip), vehicle: saline, higher = longer survival): 100 % of control
T/C (endpoint: median survival time, dose: 0.25 mg/kg/injection, schedule: Q01DX009 (ip), vehicle: saline, higher = longer survival): 108 % of control
T/C (endpoint: median survival time, dose: 0.25 mg/kg/injection, schedule: Q04DX003 (ip), vehicle: saline, higher = longer survival): 108 % of control
T/C (endpoint: median survival time, dose: 0.5 mg/kg/injection, schedule: Q01DX009 (ip), vehicle: saline, higher = longer survival): 108 % of control
T/C (endpoint: median survival time, dose: 0.5 mg/kg/injection, schedule: Q04DX003 (ip), vehicle: saline, higher = longer survival): 88 % of control
T/C (endpoint: median survival time, dose: 0.5 mg/kg/injection, schedule: Q08DX002 (ip), vehicle: saline, higher = longer survival): 104 % of control
T/C (endpoint: median survival time, dose: 1.0 mg/kg/injection, schedule: Q04DX003 (ip), vehicle: saline, higher = longer survival): 93 % of control
T/C (endpoint: median survival time, dose: 1.0 mg/kg/injection, schedule: Q08DX002 (ip), vehicle: saline, higher = longer survival): 104 % of control
T/C (endpoint: median survival time, dose: 1.5 mg/kg/injection, schedule: Q08DX002 (ip), vehicle: saline, higher = longer survival): 108 % of control
T/C (endpoint: median survival time, dose: 2.0 mg/kg/injection, schedule: Q04DX003 (ip), vehicle: saline, higher = longer survival): 53 % of control
T/C (endpoint: median survival time, dose: 125.0 micrograms/kg/injection, schedule: Q01DX009 (ip), vehicle: saline, higher = longer survival): 88 % of control and 118 % of control
T/C (endpoint: median survival time, dose: 250.0 micrograms/kg/injection, schedule: Q01DX009 (ip), vehicle: saline, higher = longer survival): 93 % of control
T/C (endpoint: median survival time, dose: 500.0 micrograms/kg/injection, schedule: Q01DX009 (ip), vehicle: saline, higher = longer survival): 97 % of control
T/C (endpoint: median tumor weight (est.), dose: 0.12 mg/kg/injection, schedule: Q01DX011 (ip), vehicle: saline, higher = larger tumour): 102 % of control
T/C (endpoint: median tumor weight (est.), dose: 0.18 mg/kg/injection, schedule: Q01DX011 (ip), vehicle: saline, higher = larger tumour): 46 % of control
T/C (endpoint: median tumor weight (est.), dose: 125.0 micrograms/kg/injection, schedule: Q01DX009 (ip), vehicle: saline, higher = larger tumour): 92 % of control
T/C (endpoint: median tumor weight (est.), dose: 250.0 micrograms/kg/injection, schedule: Q01DX009 (ip), vehicle: saline, higher = larger tumour): 93 % of control
T/C (endpoint: median tumor weight (est.), dose: 500.0 micrograms/kg/injection, schedule: Q01DX009 (ip), vehicle: saline, higher = larger tumour): 43 % of control
